Results as given in article PMC7218127, “Cytotoxic and Optically Active Pyrisulfoxins From the Endophytic Streptomyces albolongus EA12432” (Frontiers in Chemistry, 2020).

Key:
cancer cells = experiment: Cytotoxicity (MTT, SRB, CTG), summary over all cancer cells; conditions: read-out: IC50 values against cancer cells, range
[1] = tested on: other 26 cell lines (Table 4 without N87); experiment: CTG cytotoxic assay, summary over the other cell lines of Table 4; conditions: read-out: IC50 against other 26 cell lines
[2] = tested on: N87 gastric carcinoma cell line; experiment: CellTiter-Glo (CTG) cytotoxic assay; conditions: Homo sapiens, 72 h, read-out: Cytotoxicity IC50, N87
[3] = CellTiter-Glo (CTG) cytotoxic assay, normal cells; conditions: human, L02 normal liver cells
[4] = CellTiter-Glo (CTG) cytotoxic assay, normal cells; conditions: human, HEK-293F cells
[5] = tested on: MCF-7 human breast cancer cell line; experiment: MTT cytotoxicity assay; conditions: read-out: Cytotoxicity IC50, MCF-7; MTT method, 72 h (Table 5); NA = no activity
[6] = tested on: HCT-116 human colorectal cancer cell line; experiment: SRB cytotoxicity assay; conditions: read-out: Cytotoxicity IC50, HCT-116; SRB method, 72 h (Table 5); NA = no activity
[7] = tested on: Karpass299 T cell lymphoma cell line; experiment: CellTiter-Glo (CTG) cytotoxic assay; conditions: Homo sapiens, 72 h, read-out: Cytotoxicity IC50, Karpass299
[8] = tested on: A549 lung cancer cell line; experiment: CellTiter-Glo (CTG) cytotoxic assay; conditions: Homo sapiens, A549, 72 h, read-out: Cytotoxicity IC50, A549
[9] = tested on: MV-4-11 leukemia cell line; experiment: CellTiter-Glo (CTG) cytotoxic assay; conditions: Homo sapiens, MV4-11, 72 h, read-out: Cytotoxicity IC50, MV-4-11
[10] = tested on: MDA-MB-231 breast cancer cell line; experiment: CellTiter-Glo (CTG) cytotoxic assay; conditions: Homo sapiens, MDA-MB-231, 72 h, read-out: Cytotoxicity IC50, MDA-MB-231
[11] = tested on: 143B bone osteosarcoma cell line; experiment: CellTiter-Glo (CTG) cytotoxic assay; conditions: Homo sapiens, 72 h, read-out: Cytotoxicity IC50, 143B
[12] = tested on: H1975 lung cancer cell line; experiment: CellTiter-Glo (CTG) cytotoxic assay; conditions: Homo sapiens, NCI-H1975, 72 h, read-out: Cytotoxicity IC50, H1975
[13] = tested on: A431 epidermoid carcinoma cell line; experiment: CellTiter-Glo (CTG) cytotoxic assay; conditions: Homo sapiens, A-431, 72 h, read-out: Cytotoxicity IC50, A431
[14] = tested on: A673 rhabdomyoma cell line; experiment: CellTiter-Glo (CTG) cytotoxic assay; conditions: Homo sapiens, A673, 72 h, read-out: Cytotoxicity IC50, A673
[15] = tested on: BXPC-3 human pancreatic cancer cell line; experiment: SRB cytotoxicity assay; conditions: read-out: Cytotoxicity IC50, BXPC-3; SRB method, 72 h (Table 5)
[16] = tested on: MDA-MB-468 breast cancer cell line; experiment: CellTiter-Glo (CTG) cytotoxic assay; conditions: Homo sapiens, MDA-MB-468, 72 h, read-out: Cytotoxicity IC50, MDA-MB-468
HL-60 leukemia cell line = experiment: CellTiter-Glo (CTG) cytotoxic assay; conditions: Homo sapiens, HL-60, 72 h, read-out: Cytotoxicity IC50, HL60
[17] = tested on: Hep3B liver cancer cell line; experiment: CellTiter-Glo (CTG) cytotoxic assay; conditions: Homo sapiens, 72 h, read-out: Cytotoxicity IC50, Hep3B
[18] = tested on: B16F10 highly metastatic mouse melanoma cell line; experiment: CellTiter-Glo (CTG) cytotoxic assay; conditions: B16-F10, 72 h, read-out: Cytotoxicity IC50, B16F10
[19] = tested on: HCT-116 human colon carcinoma cell line; experiment: CellTiter-Glo (CTG) cytotoxic assay; conditions: HCT-116, 72 h, read-out: Cytotoxicity IC50, HCT-116
[20] = tested on: P6C human colorectal cancer cell line; experiment: MTT cytotoxicity assay; conditions: read-out: Cytotoxicity IC50, P6C; MTT method, 72 h (Table 5)
[21] = tested on: H1299 lung cancer cell line; experiment: CellTiter-Glo (CTG) cytotoxic assay; conditions: Homo sapiens, NCI-H1299, 72 h, read-out: Cytotoxicity IC50, H1299
[22] = tested on: HT-29 human colorectal cancer cell line; experiment: SRB cytotoxicity assay; conditions: read-out: Cytotoxicity IC50, HT-29; SRB method, 72 h (Table 5)
[23] = tested on: U87 glioblastoma cell line; experiment: CellTiter-Glo (CTG) cytotoxic assay; conditions: Homo sapiens, 72 h, read-out: Cytotoxicity IC50, U87
[24] = tested on: H2228 lung cancer cell line; experiment: CellTiter-Glo (CTG) cytotoxic assay; conditions: Homo sapiens, NCI-H2228, 72 h, read-out: Cytotoxicity IC50, H2228
[25] = tested on: U251 glioblastoma cell line; experiment: CellTiter-Glo (CTG) cytotoxic assay; conditions: Homo sapiens, U-251, 72 h, read-out: Cytotoxicity IC50, U251
[26] = tested on: HCC1954 ductal carcinoma cell line; experiment: CellTiter-Glo (CTG) cytotoxic assay; conditions: Homo sapiens, HCC1954, 72 h, read-out: Cytotoxicity IC50, HCC1954
[27] = tested on: BT474 breast cancer cell line; experiment: CellTiter-Glo (CTG) cytotoxic assay; conditions: Homo sapiens, BT-474, 72 h, read-out: Cytotoxicity IC50, BT474
[28] = tested on: HUCCT1 ductal carcinoma cell line; experiment: CellTiter-Glo (CTG) cytotoxic assay; conditions: Homo sapiens, HuCCT-1, 72 h, read-out: Cytotoxicity IC50, HUCCT1
K562 cell line = experiment: MTT cytotoxicity assay; conditions: read-out: Cytotoxicity IC50, K562; MTT method, 72 h (Table 5); NA = no activity
K562 leukemia cell line = experiment: CellTiter-Glo (CTG) cytotoxic assay; conditions: Homo sapiens, K562, 72 h, read-out: Cytotoxicity IC50, K562
[29] = tested on: MKN-45 gastric cancer cell line; experiment: CellTiter-Glo (CTG) cytotoxic assay; conditions: Homo sapiens, MKN-45, 72 h, read-out: Cytotoxicity IC50, MKN-45
[30] = tested on: SPC-A1 lung cancer cell line; experiment: CellTiter-Glo (CTG) cytotoxic assay; conditions: Homo sapiens, SPCA1, 72 h, read-out: Cytotoxicity IC50, SPC-A1
[31] = tested on: DU145 prostate cancer cell line; experiment: CellTiter-Glo (CTG) cytotoxic assay; conditions: Homo sapiens, DU-145, 72 h, read-out: Cytotoxicity IC50, DU145
Jurkat cell line = experiment: MTT cytotoxicity assay; conditions: read-out: Cytotoxicity IC50, Jurkat; MTT method, 72 h (Table 5)
[32] = tested on: MCF-7 breast cancer cell line; experiment: CellTiter-Glo (CTG) cytotoxic assay; conditions: Homo sapiens, MCF7, 72 h, read-out: Cytotoxicity IC50, MCF-7
26 cancer cell lines = experiment: CTG cytotoxic assay, summary over the panel; conditions: read-out: IC50 values against 26 cancer cell lines, range
[33] = tested on: HCT-116, HT-29, P6C and BXPC-3 cell lines; experiment: SRB/MTT cytotoxicity assays, summary over CRC and pancreatic lines; conditions: Homo sapiens, read-out: IC50 values against HCT-116, HT-29, P6C and BXPC-3, range

SMILES	IC50 (cancer cells)	IC50 [2]	IC50 at 72 h [3]	IC50 at 72 h [4]	IC50 [5]	IC50 [6]	IC50 [7]	IC50 [8]	IC50 [9]	IC50 [10]	IC50 [11]	IC50 [12]	IC50 [13]	IC50 [14]	IC50 [15]	IC50 [16]	IC50 (HL-60 leukemia cell line)	IC50 [17]	IC50 [18]	IC50 [19]	also measured
COc1cc(-c2ccccn2)nc(CO)c1[S+](C)[O-] (stereo not shown) [compound 1, 4-methoxy-5-methylsulfinyl-2,2′-bipyridine-6-methanol]	48 to 9710 nM	8090 nM	> 100000 nM	> 100000 nM																	IC50 [1]: > 100000 nM
COc1cc(-c2ccccn2)nc([C@@H]2NC(=O)c3ccccc3N2)c1SC [S(+)-14, S-Pyrisulfoxin F]					10400 nM																
COc1cc(-c2ccccn2)nc([C@H]2NC(=O)c3ccccc3N2)c1SC [R(–)-14, R-Pyrisulfoxin F]						14700 nM															
COc1cccc2c1C(=O)c1c(O)c3c(c(O)c1C2=O)C[C@@](O)(C(=O)CO)C[C@@H]3O[C@H]1C[C@H](N)[C@H](O)[C@H](C)O1 [Adriamycin, reference compound]		120 nM	96 nM	50 nM	860 nM	210 nM	390 nM	99 nM	160 nM	180 nM	95 nM	91 nM	170 nM	130 nM	32 nM	> 100000 nM	210 nM	17600 nM	15 nM	100 nM	IC50 [20]: 650 nM; IC50 [21]: 490 nM; IC50 [22]: 160 nM; IC50 [23]: 120 nM; IC50 [24]: 97 nM; IC50 [25]: 190 nM; IC50 [26]: 48 nM; IC50 [27]: 1940 nM; IC50 [28]: 51 nM; IC50 (K562 cell line): 250 nM; IC50 (K562 leukemia cell line): 18 nM; IC50 [29]: 190 nM; IC50 [30]: 190 nM; IC50 [31]: 48 nM; IC50 (Jurkat cell line): 440 nM; IC50 [32]: 100 nM
CC(=O)NCc1nc(-c2ccccn2)cc(O)c1[S+](C)[O-] (racemic) [(±)-2, N-[(4-hydroxy-5-methylsulfinyl-2,2′-bipyridin-6-yl)methyl] acetamide]	48 to 9710 nM	7460 nM	> 100000 nM	> 100000 nM			3130 nM	4180 nM	9710 nM	920 nM	8390 nM	2550 nM	4630 nM	6900 nM		1310 nM	3180 nM	4420 nM	7740 nM	2450 nM	IC50 (26 cancer cell lines): 920 to 9710 nM; IC50 [21]: 7380 nM; IC50 [23]: 3670 nM; IC50 [24]: 8050 nM; IC50 [25]: 4790 nM; IC50 [26]: 2140 nM; IC50 [27]: 8240 nM; IC50 [28]: 7910 nM; IC50 (K562 leukemia cell line): 5920 nM; IC50 [29]: 4880 nM; IC50 [30]: 7830 nM; IC50 [31]: 4510 nM; IC50 [32]: 5780 nM
COc1cc(-c2ccccn2)nc(/C=N/O)c1[S+](C)[O-] (racemic) [(±)-3, pyrisulfoxin A]	48 to 9710 nM					730 nM									1600 nM						IC50 [33]: 48 to 3200 nM; IC50 [20]: 3200 nM; IC50 [22]: 830 nM; IC50 (K562 cell line): 13000 nM
